According to article PMC7177633, “Effective Cellular Transport of Ortho-Halogenated Sulfonamide Derivatives of Metformin Is Related to Improved Antiproliferative Activity and Apoptosis Induction in MCF-7 Cells” (International Journal of Molecular Sciences, 2020):

What was measured:
[1] = test system: OCTs; assay: Inhibition of [14C]choline uptake in MCF-7 cells (competitive inhibition assay); assay type: cell-based, human; conditions: mean ± SD (n = 3)
Procedure: (§1) The following day, after removal of the culture medium, the cells were carefully washed with prewarmed HBSS (Hanks’ balanced salt solution) containing 125 mM NaCl, 4.8 mM KCl, 1.2 mM MgSO4, 1.2 mM KH2PO4, 1.3 mM CaCl2, 5.6 mM glucose and 25 mM HEPES (pH 7.4). […] Then, the cells were washed three times with ice-cold HBSS (500 μL) and were lysed with 250 μL of 0.1-M NaOH in the ice bath, and the lysate was mixed with 1.0 mL of an emulsifier safe cocktail (PerkinElmer, Waltham, MA, USA). The radioactivity was measured by liquid scintillation counting (MicroBeta^2 counter, PerkinElmer, Waltham, MA, USA). The studies were carried out with the use of at least three replicates from the same cell passage.

[2] = test system: OCTs; assay: Inhibition of [14C]choline uptake in MDA-MB-231 cells (competitive inhibition assay); assay type: cell-based, human; conditions: mean ± SD (n = 3)
Procedure: as §1

[3] = test system: MCF-7 cells; assay: Uptake in the presence of OCT and MATE inhibitors, MCF-7 cells; assay type: in vitro ADME, human; conditions: for uptake in the presence of cimetidine, MCF-7 / uptake in the presence of disopyramide, MCF-7 / uptake in the presence of lopinavir, MCF-7 / uptake in the presence of methenamine, MCF-7: compound and inhibitor 400 and 800 µmol/L, 10 min, 37 °C; for interactions with OCT, PMAT and MATE1 transporters, MCF-7: summary from uptake with inhibitors
Procedure: The uptake of sulfonamide derivatives of metformin (1–9) in MCF-7 and MDA-MB-231 cells was studied also in the presence of disopyramide, cimetidine (OCT1 and 3 inhibitors), lopinavir (OCT and PMAT inhibitor) and methenamine (MATE and OCT2 inhibitors). The cells were incubated (37 °C, 10 min) with compounds 1–9 at concentrations of 400 and 800 μmol/L and inhibitors (disopyramide, cimetidine, lopinavir or methenamine) in 250 μL of prewarmed HBSS buffer. The protocol of determination of the compound concentration was as described above.

[4] = test system: MDA-MB-231 cells; assay: Annexin V-FITC/PI apoptosis assay, MDA-MB-231; assay type: cell-based, human; conditions: for Early Apoptotic [E+−] / Late Apoptotic [E++] / Living Cells [E−−] / Necrotic Cells [E−+] / Single Cells in Gate B: MDA-MB-231, 24 h
Procedure: MCF-7 and MDA-MB-231 cells were seeded at a density of 5 × 10^4 per well on 24-well plates and incubated for 24 h (37 °C, 5% CO2) to obtain 70 % confluency. Then, the medium (control) or medium with the tested compounds in a volume of 250 μL was added and incubated for another 24 h. The cells were harvested using accutase (Sigma Aldrich, St. Louis, MO, USA) as a detaching reagent, collected to Eppendorf tubes and centrifuged (1100 rpm, 5 min). Afterwards, the cells were resuspended in 1 mL of a cold cell-staining buffer (Biolegend, London UK) and washed twice with a cell-staining buffer. The final step included suspension of the cell pellets in 100 μL of a binding buffer, staining with propidine iodide (PI; 10 μL) and FITC-annexin solutions (AV; 5 μL) (FITC Annexin V Apoptosis Detection Kit with PI (Biolegend, UK)). The samples were incubated for 20 min at room temperature in the dark, followed by an analysis conducted on a cytometer (CytoFlex, blue laser, 480 nm, Beckman-Coulter, Indianapolis, IN, USA). The results were analyzed using Kaluza 2.1 (Beckman-Coulter) software.
Annexin V (−) and PI (−) cells were considered living cells, annexin V (+) and PI (−) as early-apoptotic cells, annexin V (+) and PI (+) as late-apoptotic cells and annexin V (−) and PI (+) as necrotic cells.
The experiments were conducted in triplicates (n = 3). The coefficients of variation for the assay were determined (CV = 0.97–13.62%, depending on the calculated cell population).

[5] = test system: MCF-7 cells; assay: Cell cycle analysis (PI, flow cytometry), MCF-7; assay type: cell-based, human; conditions: MCF-7, 24 h
Procedure: MCF-7 and MDA-MB-231 cells were seeded in 6-well plates at a density of 2 × 10^5 cells per well and cultured for 24 h under standard conditions (with 2 mL of the medium). Next, cells were exposed to the tested compounds at concentrations corresponding to IC50. After 24 h of treatment, control and treated cells were then collected (washed with cold PBS and treated with accutase), transferred to Eppendorf tubes and centrifuged (1100 rpm, 5 min, 5 °C). The supernatant was discarded, cold PBS was added (1 mL) and the cells were centrifuged (1200 rpm, 5 min). The solution was removed, and the cells were fixed in cold 70% ethanol at 4 °C. Prior to the analysis, the cells were centrifuged (3600 rpm, 5 min) and washed twice with PBS. The solution was discarded, the pellets were suspended in 200 µL of PBS and incubated with ribonuclease at 37 °C (25 µL, final concentration in a sample was 100 µg/mL) for 30 min and stained with propidine iodide (12.5 µL, final concentration in a sample was 50 µg/mL) in darkness at room temperature for additional 20 min. The final volume of the sample was 250 µL.
DNA content and the number of cells in individual cell cycle phases was measured by flow cytometry (CytoFlex, blue laser, 480 nm, Beckman-Coulter, Indianapolis, IN, USA). Cells (20,000) were analyzed from each sample. The percentage of cells in each cell cycle phase was calculated from live cells that were expressed as 100%. The data are presented as the mean ± SD of three independent experiments. The coefficients of variation for the assay were established (CV = 0.37–11.78%, depending on the cell population).

[6] = Comp. 1 and 4 1500 μmol/L, Comp. 7 1300 μmol/L (½ × IC50)
[7] = Comp. 1 and 4 3000 μmol/L, Comp. 7 2600 (IC50)
[8] = IC50 (Comp. 1 13, Comp. 4 430, Comp. 7 55 μmol/L)
[9] = MDA-MB-231, 3000 uM, representative cytogram Figure 7B

Row | IC50 [1] [µM] | IC50 [2] [µM] | uptake in the presence of cimetidine, MCF-7 [3] | uptake in the presence of lopinavir, MCF-7 [3] | interactions with OCT, PMAT and MATE1 transporters, MCF-7 [3] | SMILES | uptake in the presence of disopyramide, MCF-7 [3] | Early Apoptotic [E+−] [4, 6] [%] | Late Apoptotic [E++] [4, 6] [%] | Living Cells [E−−] [4, 6] [%] | Necrotic Cells [E−+] [4, 6] [%] | Single Cells in Gate B [4, 6] [%] | Early Apoptotic [E+−] [4, 7] [%] | Late Apoptotic [E++] [4, 7] [%] | Living Cells [E−−] [4, 7] [%] | Necrotic Cells [E−+] [4, 7] [%] | Single Cells in Gate B [4, 7] [%] | G0/G1 [5, 8] [%] | G2/M [5, 8] [%] | S [5, 8] [%] | Sub G0/G1 [5, 8] [%] | other results
1 | 1050 ± 14.2 | 2135 ± 14 | significantly decreased | significantly higher uptake | OCT1, OCT3, PMAT, MATE1 | CN(C)C(=N)N=C(N)NS(=O)(=O)c1ccccc1Cl [Compound 1] | Lower uptake, however, not statistically significant | 7.66 ± 0.06 | 8.06 ± 0.81 | 81.55 ± 1.65 | 2.74 ± 0.98 | 94.34 ± 0.26 | 9.96 ± 0.92 | 31.41 ± 3.46 | 53.83 | 4.81 ± 0.60 | 91.85 ± 0.37 | 38.76 ± 0.80 | 17.54 ± 0.48 | 35.45 ± 0.23 | 8.28 ± 1.04 | uptake in the presence of methenamine, MCF-7 [3]: significantly decreased; Living Cells [E−−] ([4]; Comp. 1 and 4 1500 μmol/L, Comp. 7 1300 μmol/L (½ × IC50), listed as Comp. 1): 81.55 ± 1.65 %; Living Cells [E−−] ([4]; Comp. 1 and 4 3000 μmol/L, Comp. 7 2600 (IC50), listed as Comp. 1): 53.83 ± 3.87 %; G0/G1 ([5]; IC50 (Comp. 1 13, Comp. 4 430, Comp. 7 55 µmol/L), listed as Comp. 1): 38.76 ± 0.80 %
2 | 1670 ± 8.5 | 920 ± 13 | did not change | increased the uptake | OCT1, PMAT | CN(C)C(=N)N=C(N)NS(=O)(=O)c1ccccc1Br [Compound 4] | increased the uptake | 7.74 ± 0.91 | 13.30 ± 0.66 | 72.64 ± 1.76 | 6.31 ± 0.26 | 93.37 ± 0.34 | 6.85 ± 0.34 | 36.51 ± 3.36 | 49.49 ± 2.31 | 7.15 ± 1.45 | 90.59 ± 0.70 | 73.69 ± 0.26 | 8.21 ± 0.03 | 15.16 ± 0.54 | 2.98 ± 0.40 | uptake in the presence of methenamine, MCF-7 [3]: did not change; Early apoptosis (representative cytogram) [4, 9]: 6.91%; Late apoptosis (representative cytogram) [4, 9]: 34.48%; Live cells (representative cytogram) [4, 9]: 51.21%; Necrotic cells (representative cytogram) [4, 9]: 7.40%
3 | 6354 ± 12.9 | 5149 ± 22 | decrease in uptake | increase in its uptake | OCT3, PMAT | CN(C)C(=N)N=C(N)NS(=O)(=O)c1ccccc1F [Compound 7] |  | 8.78 ± 0.63 | 18.89 ± 2.67 | 68.26 ± 3.51 | 4.06 ± 1.75 | 93.75 ± 0.41 | 6.39 ± 0.16 | 35.54 ± 2.67 | 50.40 ± 4.95 | 7.66 ± 2.93 | 91.60 ± 0.48 | 56.48 ± 3.34 | 15.43 ± 0.93 | 10.34 ± 0.74 | 17.85 ± 2.08 | 
